System: GEMS receptors with CBPA11 (BclXL–LD3 and BclXLhigh variants), STAT3-driven SEAP in HEK293T cells
Test: GEMS SEAP reporter assay, CBPA11 (BclXLhigh, LD3-v and BclXL-v variants) with A-1155463
Format: cell-based
Set-up: key to Raw data (SEAP) / SEAP, replicate values / Raw data of Figure 5b / Raw data Figure 5e / Raw data of Independent repeat of CBPA11-v1 vs CBPA11-v1-LD3v3 / Raw data of Independent repeat of CBPA11-v3 vs CBPA11-v3-LD3v3 / Raw data of Figure 5b, CBPA11-v1-LD3v3 (SEAP reporter raw value, single replicate) / Raw data of Figure 5b, CBPA11-v1 (SEAP reporter raw value, single replicate): SEAP activity in U/L in culture supernatant
Source text: To rationally design a CBP responding to a chemical input, we used BclXL as the druglow receptor, LD3 as the designed binder and a designed BclXL variant as the drughigh receptor (referred to as BclXLhigh) to construct a CBP responsive to BclXL inhibitors (Fig. 4a). To design BclXLhigh, we used a multistate design computational protocol described elsewhere[26] […] Thus, BclXLhigh-v(1–3) were chosen as the functional drughigh receptors, resulting in three A-1155463-controlled CBPs (referred to as CBPA11-v(1–3)) (Fig. 4c–e).
HEK293T cells were seeded in a 96-well plate 24 h before transfection. The transfection mix in each well consisted of 3 ng of constitutive human CMV promoter driven mammalian STAT3 expression vector (PhCMV-STAT3-pA), 30 ng of STAT3-induced reporter expression (OStat3-PhCMVmin-SEAP-pA) and 50 ng of expression vectors for each GEMS receptor chain (PSV40-IgK-(drughigh receptor)-EpoRm-IL-6RBm-pA and PSV40-IgK-(druglow receptor-GGGGSX3-LD3)-EpoRm-IL-6RBm-pA). For the specific drughigh receptor and druglow receptor used in the different cellular assays, they are indicated as wild type or with mutations. Then, plasmid DNA was mixed with 50 μl opti-MEM (Thermo Fisher) and 600 ng of polyethyleneimine (Polysciences, catalog no. 24765-1). For drug treatment experiments, drugs were added 12 h post-transfection and incubated with cells for 24 h before the SEAP reporter detection assay.
SEAP activity (U l^−1) in cell culture supernatants was quantified by kinetic measurements at 405 nm (1 minute per measurement for 30 cycles) of absorbance increase due to phosphatase-mediated hydrolysis of para-nitrophenyl phosphate (pNPP).
Binding affinities of SPR drug competition assays were calculated using three-parameter nonlinear regression in GraphPad Prism (v.8.3.0). Representative data of cell assays are presented as individual values and mean values (bars). n = 3 refers to biological replicates. All IC50 or EC50 values of cell assays reported were calculated using four-parameter nonlinear regression ± s.d. Bandpass features of cutoff concentrations and Bandwidth90% were estimated based on the curve fitted using bell-shaped curve nonlinear regression in GraphPad Prism (v.8.3.0). […]
Supplementary Figure 4: Design, screening and validation of BclXLhigh variants. a) Screening of BclXLhigh variants in the GEMS platform. […]
Dissociation constant measurement of BclXLhigh-v(1-3) and LD3. Equilibrium curves are fitted using […]
BclXLhigh-v1 (purple), BclXLhigh-v2 (blue), […]
a) Bcl2high-based bandpass filter designs were developed and to respond to different concentrations of […]
corresponding inhibitor. c) Screening of Bcl2high-based bandpass filter variants in the GEMS platform.
The designed binder LD3 was fused to the druglow-receptor (PSV40-IgK-Bcl2-LD3-EpoRm-IL-6RBm-pA) in one EpoR chain and Bcl2high variants with the insensitive Bcl2 (iBcl2) as control in the other EpoR chain (PSV40-IgK-Bcl2high-EpoRm-IL-6RBm-pA). HEK293T cells were transfected with indicated […]
the mean of six biological replicates ± s.d., overlaid with a scatter dot plot of the original data points.
(1 picture or pasted object on this page, not shown here)
Supplementary Figure 6: Binding affinities and drug resistances of Bcl2high-v(2,4,5) assessed by […]
a) Measurement of dissociation constants for Bcl2high-v(2,4,5) and LD3 interactions. Equilibrium curves […]
Bcl2high-v(2,4,5) measured by SPR. 5 μM of Bcl2 or indicated variants were mixed with 10 μM of […]
Bcl2high-v2 (red), Bcl2high-v4
Supplementary Figure 7: Screening of LD3 variants in CBPA11-v(1-3) and raw data of CBPA11-v(1,3) with LD3-v3 variant. a-c) Screening of LD3 and LD3-v(1-3) variants in complex with BclXL for more sensitive CBPA11-v1 (a), CBPA11-v2 (b), CBPA11-v3 (c) in the GEMS platform. The LD3 variants replaced the role of LD3 (PSV40-IgK-BclXL-LD3-v(1-3)-EpoRm-IL-6RBm-pA) in one EpoR chain and BclXLhigh-v(1-3) in the other EpoR chain (PSV40-IgK-BclXLhigh-V(1-3)-EpoRm-IL-6RBm-pA). HEK293T cells were transfected with […]

[1] = SuppFigure 9b, BclXL-v3, A-1155463 1 nM
[2] = SuppFigure 9b, BclXL-v3, A-1155463 3.16 nM
[3] = SuppFigure 9b, BclXL-v3, A-1155463 10 nM
[4] = SuppFigure 9b, BclXL-v3, A-1155463 31.6 nM
[5] = SuppFigure 9b, BclXL-v3, A-1155463 100 nM
[6] = SuppFigure 9b, BclXL-v3, A-1155463 316 nM
[7] = SuppFigure 9b, BclXL-v3, A-1155463 1000 nM
[8] = SuppFigure 9b, BclXL-v3, A-1155463 3160 nM
[9] = SuppFigure 9b, BclXL-v3, A-1155463 10000 nM
[10] = SuppFigure 9b, BclXL, A-1155463 1 nM
[11] = SuppFigure 9b, BclXL, A-1155463 3.16 nM
[12] = SuppFigure 9b, BclXL, A-1155463 10 nM
[13] = SuppFigure 9b, BclXL, A-1155463 31.6 nM
[14] = SuppFigure 9b, BclXL, A-1155463 100 nM
[15] = SuppFigure 9b, BclXL, A-1155463 316 nM
[16] = SuppFigure 9b, BclXL, A-1155463 1000 nM
[17] = SuppFigure 9b, BclXL, A-1155463 3160 nM
[18] = SuppFigure 9b, BclXL, A-1155463 10000 nM
[19] = SuppFigure 9c, LD3, A-1155463 1 nM
[20] = SuppFigure 9c, LD3, A-1155463 3.16 nM
[21] = SuppFigure 9c, LD3, A-1155463 10 nM
[22] = SuppFigure 9c, LD3, A-1155463 31.6 nM
[23] = SuppFigure 9c, LD3, A-1155463 100 nM

CN(C)CC#Cc1ccc(OCCCc2sc(N3CCc4cccc(C(=O)Nc5nc6ccccc6s5)c4C3)nc2C(=O)O)c(F)c1 [A-1155463]
Raw data (SEAP) (SuppFigure 9b, BclXL-v2, A-1155463 10000 nM): 6.174 | Normalized data (SEAP) [1]: 52.1022 | Raw data (SEAP) [1]: 4.346 | Normalized data (SEAP) [2]: 54.3684 | Raw data (SEAP) [2]: 4.535 | Normalized data (SEAP) [3]: 49.6336 | Raw data (SEAP) [3]: 4.14 | Normalized data (SEAP) [4]: 58.6885 | Raw data (SEAP) [4]: 4.895 | Normalized data (SEAP) [5]: 75.7473 | Raw data (SEAP) [5]: 6.318 | Normalized data (SEAP) [6]: 55.3616 | Raw data (SEAP) [6]: 4.618 | Normalized data (SEAP) [7]: 57.9749 | Raw data (SEAP) [7]: 4.836 | Normalized data (SEAP) [8]: 83.7705 | Raw data (SEAP) [8]: 6.988 | Normalized data (SEAP) [9]: 90.2218 | Raw data (SEAP) [9]: 7.526 | Normalized data (SEAP) [10]: 18.8536 | Raw data (SEAP) [10]: 4.217 | Normalized data (SEAP) [11]: 21.8131 | Raw data (SEAP) [11]: 4.879 | Normalized data (SEAP) [12]: 73.5481 | Raw data (SEAP) [12]: 16.4519 | Normalized data (SEAP) [13]: 74.0156 | Raw data (SEAP) [13]: 16.5565 | Normalized data (SEAP) [14]: 100 | Raw data (SEAP) [14]: 22.3689 | Normalized data (SEAP) [15]: 57.787 | Raw data (SEAP) [15]: 12.9263 | Normalized data (SEAP) [16]: 39.6131 | Raw data (SEAP) [16]: 8.861 | Normalized data (SEAP) [17]: 30.6519 | Raw data (SEAP) [17]: 6.8565 | Normalized data (SEAP) [18]: 26.3116 | Raw data (SEAP) [18]: 5.886 | Normalized data (SEAP) [19]: 9.095 | Raw data (SEAP) [19]: 7.283 | Normalized data (SEAP) [20]: 10.2911 | Raw data (SEAP) [20]: 8.241 | Normalized data (SEAP) [21]: 55.7186 | Raw data (SEAP) [21]: 44.6179 | Normalized data (SEAP) [22]: 64.2529 | Raw data (SEAP) [22]: 51.4519 | Normalized data (SEAP) [23]: 100 | Raw data (SEAP) [23]: 80.0772 | Normalized data (SEAP) (SuppFigure 9c, LD3, A-1155463 316 nM): 76.4435
